Patent US5700635A, “HIV-1 gag cytotoxic T-lymphocyte epitope and method of use” (United Biomedical, Inc., priority 1989, dated 1997)

Columns and labels:
[1] = test system: cytotoxic T lymphocytes specific for gag and HLA B8

## CC[C@H](C)[C@H](NC(=O)[C@H](CCC(=O)O)NC(=O)CNC(=O)[C@@H](NC(=O)[C@@H]1CCCN1C(=O)[C@@H](NC(=O)[C@@H]1CCCN1C(=O)[C@@H]1CCCN1C(=O)[C@@H](N)CC(N)=O)[C@@H](C)CC)C(C)C)C(=O)N[C@@H](Cc1ccc(O)cc1)C(=O)N[C@@H](CCCCN)C(=O)N[C@@H](CCCNC(=N)N)C(=O)N[C@@H](Cc1c[nH]c2ccccc12)C(=O)N[C@H](C(=O)N[C@H](C(=O)N[C@@H](CS)C(=O)O)[C@@H](C)CC)[C@@H](C)CC [p24-13, NH2 -asparagine-proline-proline-isoleucine-proline-valine-glycine-glutamate-isoleucine-tyrosine-lysine-arginine-tryptophan-isoleucine-iso leucine-cysteine-COOH]
Cytotoxic T lymphocytes
  stimulation of cytotoxic T lymphocytes to grow in vitro: have been used to stimulate cytotoxic T lymphocytes to grow in vitro
[1]
  recognition of peptide by cytotoxic T lymphocytes (lysis of target cells): recognised by cytotoxic T lymphocytes specific for gag and HLA B8
  specific interaction with HLA class I molecule: interacts specifically with HLA B8
